Assay results: patent US6011019A, “Vasoactive effects and free radical generation by β-amyloid peptides” (University of South Florida, priority 1996, dated 2000)

Columns and labels:
[1] = system: human neuroblastoma cell line (BE(2)-M17); assay: Aβ toxicity on BE(2)-M17 (trypan blue exclusion); format: cell-based; conditions: same concentrations as HAEC cultures, up to day eight; data not shown
Excerpt: Trypan blue exclusion was used for the cell viability assay.

basilar artery = assay: Diameter of the basilar artery in living animals after Aβ infusion; format: in vivo, rat
Experimental: In the experiments, the animals were infused twice daily for two weeks for an estimated final molarity of 0.5 μM. In the experiments, Aβ1-40 was used. The Aβ infused animals developed gross lung pathology. The lung capillary beds were the first to be reached by the venously infused Aβ. […] This is consistent with the conclusion that in Alzheimer's Disease, the cerebral vasculature could potentially be damaged and destroyed by circulating or locally produced Aβ.

[2] = system: human aortic endothelial cel line (HAEC)
Experimental: All these cells were maintained at 37° C., under an atmosphere containing 5% CO2. For the present experiments, HAEC and BE(2)-M17 were seeded at densities of 2×10^4 cells per well in 24-23ll clusters.
The experiments were terminated one half, one, two and three hours post treatment by detachment with Trypsin/EDTA solution and followed by a toxicity assay with trypan blue exclusion. In parallel experiments, cells were attached to a round Thermanox (Nunc) at the bottom of the well, and were stopped three to 24 hours post treatment by fixation with 4% neutral formalin solution which was followed by Hematoxylin-Eosin stain to show morphology.
Morphological changes in cells were monitored throughout the course of the experiment with an inverse phase-contrast microscope. After termination of the experiments, the cells fixed on the Thermanox were subjected to routine Hematoxylin-Eosin (HE) stain. The morphological characteristics of toxic cells were observed under light microscope and typical results were recorded by photographs.
For approximate quantification of Aβ toxicity of HAEC, modified procedure for trypan blue exclusion was employed. In brief, the detached cells were resuspended with an appropriate volume of culture media, 20 μl of this cell suspension was mixed with an equivalent volume of 4% Trypan-blue solution thoroughly, and allowed to sit for two minutes after mixing. Approximately 9 μl of the mixture was transferred to a hemocytometer for cell counting. The cell viability was determined by the equation: [formula] In the case of severe toxicity, where some of the cells were lysed, the total cell numbers were adjusted by that of controls. In this experiment, counts for each sample were triplicated.

rat coronary arteries = assay: Rat coronary artery constriction and relaxation (U46619, acetylcholine); conditions: for constriction of rat coronary artery by the peptide: 10^-6 M peptide
Experimental: The effects of β-amyloid peptide were examined on samples of rat coronary arteries prepared as described above. Referring specifically to FIG. 1, rat coronary arteries were treated with β-amyloid peptide (Aβ40) causing constriction of the coronary arteries.
FIG. 3 illustrates the effect of various amyloid fragments on the constriction of rat coronary arteries. Following control constriction with 10^-7 M U46619, the tissue samples were rinsed, equilibrated with buffer, and treated with 10^-6 M Aβ peptides for fifteen minutes. Following treatment with the Aβ peptides, the blood vessels were rinsed and again exposed to U46619. The values are expressed as percent of control constriction produced by U46619 alone.
The effect of pretreatment of coronary arteries with a single dose (10^-6 M) of A40 on acetylcholine induced relaxation is shown in FIG. 20. The blood vessel was preconstricted with 10^-7 M U46619 and relaxed with increasing doses of acetylcholine (10^-9 M to 10^-5 M).

rat aorta = assay: Enhancement of endothelin-1 (ET-1) induced vasoconstriction of rat aorta
Experimental: Normal Sprague-Dawley rats were sacrificed by decapitation, and freshly dissected rat aorta was segmented into rings and suspended in Ringers buffer using a tensiometer linked to the MacLab system. Following a two hour equilibration period, the "pretreatment" contraction was carried out. The aortic rings were contracted using a range of doses of endothelin-1 and relaxed using a single odes of acetylcholing (Ach(10^-7 M)). […] The dose of each Aβ peptide was 1 μM, with the exception of Aβ25-35 (1 μM and 5 μM), and was added ten minutes prior to the first ET-1 dose. For SOD treatment we added 150 U/ml 30 seconds before the addition of Aβ.
Endothelium was removed by gently passing a glass pipette, dipped in saline solution, through the lumen of the aortae several time, allowing the pipette to gently brush the endothelial surface. Endothelium was removed from the aortae prior to hanging in the tissue bath system. Both pre-and post treatment contractions involved a single does of ET-1 (5×10^-9 M).
(§1) In all cases the mean difference in percentage contraction in the pre- and post-contractions (before and after addition of test compound respectively) was measured, and compared between the two. Endogenous production of ET-1 was measured using an ET-1 RIA kit (Peninsula Laboratories).

Sprague-Dawley rats [3] = conditions: rat, in vivo
Experimental: (§2) Eleven three month old male Sprague-Dawley rats (300-350 g) were anesthetized with sodium pentobarbital (50 mg/kg, ip.) and a polyethylene cannula was inserted into the right external jugular vein to approach or enter the right atrium. […] The remaining six animals served as controls by receiving twice daily intravenous infusions of vehicle solution. Treatments were continued for 14 days, with Morris water maze "acquisition" (learning) tested during days 7-13 and water maze memory retention evaluated on day 14. Daily acquisition testing consisted of four consecutive daily trials, wherein latency to reach the submerged platform in Quadrant 2(Q2) was determined and a daily average calculated. For the memory retention trial, the submerged platform was removed and animals were placed in the quadrant opposite Q2. The percentage of time spent in the quadrant formerly containing the platform (Q2) was used as a measure of memory retention. Acquisition data was analyzed using two-way ANOVA for repeated measures and retention data was analyzed with one-way ANOVA and Student's t-test.
On day 15, animals were anesthetized with sodium pentobarbital and transcardially perfused with 4% paraformaldehyde in 0.1M PBS (pH 7.4). Tissue samples from the lung, heart, kidney, liver and pancreas were collected and post-fixed in perfusate solution until histologic processing. Brains were removed and placed in perfusate for 24 hours, followed by cytoprotective storage in 30% sucrose until histologic processing. For all tissues 20 and 40 μm frozen sections were collected and stained with Mayer's Acid Hemalin followed by alkaline Congo red. Selected 20 μm brain sections were stained for glial fibrillary acidic protein (GFAP).

ET-1 = assay: Endogenous ET-1 release, radioimmunoassay; parameters: species or system rat; conditions: competition with 125I-labeled ET-1
Experimental: as §1
To investigate the possibility that Aβ releases endogenous stores of ET-1 a radioimmunoassay in which endogenous ET-1 released into the vessel buffer, would compete with ^125 I-labeled ET-1 for binding to a specific antibody was performed. […] In addition, to examine the role played by lipid peroxidation is in the vasoconstrictive mechanism, vessels were contracted in the presence of allopurinol, which inhibits the conversion of xanthine dehydrogenase to xanthine oxidase, preventing lipid peroxidation.

Sprague-Dawley rats [4] = assay: Morris water maze acquisition and memory retention during intravenous Aβ infusion; format: in vivo, rat; conditions: days 7-14
Experimental: as §2

Aβ1-40: Soluble Aβ containing forty amino acids; supplied by RBI and/or MD Enterprise
toxic effect on differentiated BE(2)-M17 cells [1]: not toxic effect was noticed
basilar artery diameter (basilar artery): results in constriction of this artery
cell viability at 32 μM [2]: significantly less cell viability compared to control
cell viability at low concentrations [2]: not found to induce significant change of cell viability
toxicity of several batches (RBI, MD, Sigma) [2]: almost non-toxic to HAEC
constriction of rat coronary artery by the peptide (rat coronary arteries): induce constriction of the coronary artery
constriction of rat coronary artery by the peptide (rat coronary arteries; listed as Aβ): small but detectable contraction
duration of constriction compared among fragments (rat coronary arteries; 10^-6 M peptides, real time recording): longest sustained constriction
U46619 induced vasoconstriction following Aβ treatment (rat coronary arteries; 10^-7 M U46619 after 10^-6 M Aβ for fifteen minutes): significantly potentiated
effect of Aβ on the ET-A antagonist induced decrease of ET-1 contraction (rat aorta): in part countered
enhancement in aortae from older versus younger rats (rat aorta): trend towards greater enhancement in older rats
enhancement of ET-1 contraction (rat aorta; peptide 1 μM (Aβ25-35 1 μM and 5 μM) ten minutes prior to first ET-1 dose): dramatically enhanced the contraction of rat aorta by ET-1
enhancement of ET-1 contraction in the absence of endothelium (rat aorta; single dose ET-1 5×10^-9 M): enhance contraction of rat aortae to an extent not significantly different from the enhancement observed in the presence of endothelium
Congo red birefringence in the brains (Sprague-Dawley rats [3]): no Congo red birefringence was observed
perivascular gliosis in GFAP stained brain sections (Sprague-Dawley rats [3]): increased perivascular gliosis was evident
severe vascular accidents in other peripheral tissues (kidney, pancreas, heart) (Sprague-Dawley rats [3]): not, however, typically seen
release of endogenous ET-1 into the vessel buffer (ET-1): did not indicate that any unlabelled ET-1 was present
water maze acquisition and memory retention (Sprague-Dawley rats [4]): no different from that of vehicle-infused controls
